# Target: T1, human CB2 receptor (Homo sapiens, UniProt P34972)
# T1 construct: beta-galactosidase fragment (the cell line's name says 'bgal'; own knowledge: PathHunter enzyme-fragment-complementation lines carry a small beta-gal fragment fused to the receptor's C-terminus); host or cells: CHO-K1 (CHOK1hCB2_bgal), membranes
# Assay: [3H]CP55940 displacement assay
# Assay type: binding
# Conditions: 10 μM of the compound; [3H]CP55940, CHOK1hCB2_bgal membranes
# Protocol: CHOK1hCB2_bgal cells (DiscoverRx, Fremont, CA, USA) were cultured in Dulbecco’s Modified Eagle’s Medium/Nutrient Mixture F-12 Ham supplemented with 10% fetal calf serum, 1 mM glutamine, 50 µg/mL penicillin, 50 µg/mL streptomycin, […] hygromycin and 800 µg/mL geneticin in a humidified atmosphere at 37 °C and 5% CO2. Cells were subcultured twice a week at a ratio of 1:20 on 10-cm diameter plates by trypsinization. For membrane preparation, the cells were subcultured with a ratio of 1:10 and transferred to 15-cm diameter plates. The cells were collected by scraping in 5 mL phosphate-buffered saline (PBS) and centrifuged at 1000 g for 5 min. Pellets derived from 30 plates were combined and resuspended in 20 mL cold Tris–HCl, MgCl2 buffer (50 mM Tris–HCl (pH 7.4), 5 mM MgCl2). The cell suspension was homogenized using an UltraTurrax homogenizer (Heidolph Instruments Schwabach, Germany). Membranes and cytosolic fractions were separated by centrifugation in a Beckman Optima LE-80 K ultracentrifuge (Beckman Coulter Inc., Fullerton, CA, USA) at 100,000 g for 20 min at 4 °C. The supernatant was discarded. The pellet was resuspended in 10 mL cold Tris–HCl, MgCl2 buffer and homogenization and centrifugation steps were repeated. The membranes were resuspended in 10 mL cold Tris–HCl, MgCl2 buffer. Aliquots of 50 µL were stored at -80 °C until further use. The protein concentration was determined using the Pierce™ BCA Protein Assay Kit (ThermoFisher Scientific, Waltham, MA, USA).
# At first, all compounds were tested at a final concentration of 10 µM. […] Six different concentrations of the compounds were added by an HP D300 digital dispenser (Tecan Group Ltd, Männedorf, Switzerland). In order to determine the total binding, a control without test compound was included. Nonspecific binding was determined in the presence of 10 µM AM630. The total assay volume was 100 µL. The final concentration of DMSO was ≤ 0.25%. The incubation was terminated by rapid vacuum filtration through GF/C 96-well filter plates (PerkinElmer, Waltham, MA), to separate the bound and free radioligand, using a PerkinElmer Filtermate-harvester (PerkinElmer, Groningen, The Netherlands). Filters were subsequently washed […] with ice-cold assay buffer. The filter-bound radioactivity was determined by scintillation spectrometry using a Microbeta2® 2450 microplate counter (PerkinElmer, Boston, MA), after addition of 25 μl MicroScint 20 (PerkinElmer, Groningen, The Netherlands) and 3 h incubation.
# All experimental data were analyzed using GraphPad Prism 7 [36]. The data were normalized to percentage specific radioligand binding, where the total binding is 100% and nonspecific binding is 0%. […] All data were obtained from three separate experiments performed in duplicate.
# T1 sequence (P34972 whole entry, the tested form may be a part): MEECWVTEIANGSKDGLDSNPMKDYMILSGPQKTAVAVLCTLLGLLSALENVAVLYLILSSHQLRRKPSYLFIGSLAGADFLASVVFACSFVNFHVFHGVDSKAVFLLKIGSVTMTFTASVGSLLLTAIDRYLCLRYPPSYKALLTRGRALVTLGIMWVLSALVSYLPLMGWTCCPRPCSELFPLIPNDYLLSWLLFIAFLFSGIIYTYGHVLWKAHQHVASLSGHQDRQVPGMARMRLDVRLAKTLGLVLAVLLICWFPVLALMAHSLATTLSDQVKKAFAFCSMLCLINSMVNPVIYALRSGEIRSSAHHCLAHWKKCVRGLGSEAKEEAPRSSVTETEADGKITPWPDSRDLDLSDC
row,Compound,% displacement of the radioligand
1,CCn1cc(C(=O)NCC2(N3CCOCC3)CCCCC2)c(=O)c2ccc(C)nc21 [Z27019562],30%
2,Cc1nn(-c2ccccc2)c2sc(C(=O)NC34CC5CC(CC(C5)C3)C4)cc12 [Z27687279],38%
3,CC1(C)C2CCC1(C)C(NC(=O)C1CCN(S(=O)(=O)c3ccc(F)c(F)c3)CC1)C2 (centres unmarked) [Z28357392],26%
4,CCC(NC(=O)c1cccc(S(=O)(=O)N2CCOCC2)c1)C12CC3CC(CC(C3)C1)C2 (centres unmarked) [Z28609248],16%
5,CC1(C)C2CC=C(/C=N/NC(=O)CCc3ccc(S(=O)(=O)N4CCOCC4)cc3)C1C2 (centres unmarked) [Z44867007],0%
6,COc1ccc(C=C(C(=O)NC2CCCCC2)C(=O)NC2CCCCC2)cc1OC [Z46091805],38%
7,CCN(CC)c1ccc(S(=O)(=O)N2CCOCC2)cc1NS(=O)(=O)CC12CCC(CC1=O)C2(C)C (centres unmarked) [Z55473655],7%
8,CCC(C)(C)C1CCC(NC(=O)c2cc(S(=O)(=O)N3CCOCC3)ccc2C)CC1 (centres unmarked) [Z91179667],29%
9,CC(C)C(NC(=O)CN1CCN(c2nccn2C)CC1)c1ccc2c(c1)OCCCO2 (centres unmarked) [Z1317886912],3%
10,CC1(CN2CCOCC2)CCN(CC(=O)N2CCc3sccc3C2)CC1 [Z1523102560],18%
11,COc1ccc2c(c1)c(C(=O)N(C)CC(C)OC)c(C)n2C1CC1 (centres unmarked) [Z2094674960],0%

# Same assay, conditions: [3H]CP55940 (~1.5 nM) displacement, CHOK1hCB2_bgal membranes, 25 °C, 2 h; three separate experiments in duplicate
row,Compound,pKi ± SEM
1,Cc1ccc(NC(=O)C2CCC(C(C)(C)C)CC2)cc1S(=O)(=O)N1CCOCC1 (centres unmarked) [Z26476746],6.54 ± 0.14
2,CCOC(=O)c1c(NC(=O)CC23CC4CC(CC(C4)C2)C3)sc2c1CCCC2 [Z27680708],7.46 ± 0.32
3,Cc1ccc(C(=O)NC23CC4CC(CC(C4)C2)C3)cc1S(=O)(=O)N1CCCCC1 [Z27687312],7.22 ± 0.46
4,CCCCn1nc(C(=O)NC2CC3CCC2(C)C3(C)C)c2ccccc2c1=O (centres unmarked) [Z28357657],6.81 ± 0.29
5,Cc1ccc(C(=O)NC2CCCC(C)C2C)cc1S(=O)(=O)N1CCOCC1 (centres unmarked) [Z32934509],6.47 ± 0.02
6,CCc1ccc(C(=O)NC(C)C23CC4CC(CC(C4)C2)C3)cc1S(=O)(=O)N1CCOCC1 (centres unmarked) [Z336532434],7.67 ± 0.17

# Reference: article PMC6836644, “A multiple classifier system identifies novel cannabinoid CB2 receptor ligands” (Journal of Cheminformatics, 2019)
